{
  "source": "patent US9242981B2",
  "about": "“Fused pyrazole derivatives as novel ERK inhibitors” (Merck Sharp & Dohme Corp., priority 2010, dated 2016)",
  "biological_target": "Mouse ERK2 protein (Mus musculus (Mouse), UniProt P63085)",
  "sequence (P63085 whole entry)": "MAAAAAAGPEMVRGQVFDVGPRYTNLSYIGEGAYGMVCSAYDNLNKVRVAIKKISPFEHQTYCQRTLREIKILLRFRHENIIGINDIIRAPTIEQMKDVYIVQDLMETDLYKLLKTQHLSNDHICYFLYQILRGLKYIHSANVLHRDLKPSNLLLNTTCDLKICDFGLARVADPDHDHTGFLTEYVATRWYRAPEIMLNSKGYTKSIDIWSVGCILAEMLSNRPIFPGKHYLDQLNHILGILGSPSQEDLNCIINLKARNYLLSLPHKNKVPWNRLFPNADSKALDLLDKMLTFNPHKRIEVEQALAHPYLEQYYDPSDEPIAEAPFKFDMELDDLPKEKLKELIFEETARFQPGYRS",
  "assay": "Coupled MEK1/ERK2 IMAP assay or Active ERK2 IMAP assay",
  "format": "biochemical",
  "details": "Table 1, class symbols, 30 μM ATP",
  "data": [
    {"compound": "Cc1cccc(C)c1CN1CCC[C@@H](NC(=O)N2CCc3[nH]nc(-c4ccc5c(cnn5C)c4)c3C2)C1", "note": "[Compound 127, N-[1-[(2,6-dimethylphenyl)-methyl]-3(R)-piperidinyl]-1,4,6,7-tetrahydro-3-(1-methyl-1H-inclazol-5-yl)-5H-pyrazolo[4,3-c]pyridine-5-carboxamide]", "values": [
      {"measurement": "IC50", "result": "< 20", "unit": "nM"}
    ]},
    {"compound": "O=C(N[C@@H]1CCN(Cc2csc3ccccc23)C1)N1CCc2[nH]nc(-c3ccc(-c4ccccc4)nc3)c2C1", "note": "[Compound 129, N-[1-(benzo[b]thien-3-ylmethyl)-3(R)-pyrrolidinyl]-1,4,6,7-tetrahydro-3-(6-phenyl-3-pyridinyl)-5H-pyrazolo[4,3-c]pyridine-5-carboxamide]", "values": [
      {"measurement": "IC50", "result": "101 to 1000", "unit": "nM"}
    ]},
    {"compound": "O=C(N[C@@H]1CCCN(Cc2c(F)cccc2F)C1)N1CCc2[nH]nc(-c3ccc4ncccc4c3)c2C1", "note": "[Compound 130, N-[1-[(2,6-difluorophenyl)-methyl]-3(R)-piperidinyl]-1,4,6,7-tetrahydro-3-(6-quinolinyl)-5H-pyrazolo[4,3-c]pyridine-5-carboxamide]", "values": [
      {"measurement": "IC50", "result": "21 to 100", "unit": "nM"}
    ]},
    {"compound": "COc1ccc(-c2n[nH]c3c2CN(C(=O)N[C@@H]2CCCN(Cc4c(F)cccc4F)C2)CC3)cc1F", "note": "[Compound 131, N-[1-[(2,6-difluorophenyl)-methyl]-3(R)-piperidinyl]-3-(3-fluoro-4-methoxyphenyl)-1,4,6,7-tetrahydro-5H-pyrazolo[4,3-c]pyridine-5-carboxamide]", "values": [
      {"measurement": "IC50", "result": "21 to 100", "unit": "nM"}
    ]},
    {"compound": "COc1ccc(-c2n[nH]c3c2CN(C(=O)N[C@@H]2CCCN(Cc4c(F)cccc4F)C2)CC3)cn1", "note": "[Compound 132, N-[1-[(2,6-difluorophenyl)-methyl]-3(R)-piperidinyl]-1,4,6,7-tetrahydro-3-(6-Methoxy-3-pyridinyl)-5H-pyrazolo[4,3-c]pyridine-5-carboxamide]", "values": [
      {"measurement": "IC50", "result": "21 to 100", "unit": "nM"}
    ]},
    {"compound": "Cn1cc2cc(-c3n[nH]c4c3CN(C(=O)N[C@@H]3CCCN(Cc5c(F)cccc5F)C3)CC4)ccc2n1", "note": "[Compound 133, N[1-[(2,6-difluorophenyl)-methyl]-3(R)-piperidinyl]-1,4,6,7-tetrahydro-3-(2-methyl-2H-indazol-5-yl)-5H-pyrazolo[4,3-c]pyridine-5-carboxamide]", "values": [
      {"measurement": "IC50", "result": "21 to 100", "unit": "nM"}
    ]},
    {"compound": "Cn1ncc2cc(-c3n[nH]c4c3CN(C(=O)N[C@@H]3CCCN(Cc5c(F)cccc5F)C3)CC4)ccc21", "note": "[Compound 134, N-[1-[(2,6-difluorophenyl)-methyl]-3(R)-piperidinyl]-1,4,6,7-tetrahydro-3-(1-methyl-1H-indazol-5-yl)-5H-pyrazolo[4,3-c]pyridine-5-carboxamide]", "values": [
      {"measurement": "IC50", "result": "21 to 100", "unit": "nM"}
    ]},
    {"compound": "COc1cccc(F)c1CN1CCC(F)C(NC(=O)N2CCc3[nH]nc(-c4ccnc(C)c4)c3C2)C1", "note": "(centres unmarked) [Compound 135, N-[4-fluoro-1-[(2-fluoro-6-methoxyphenyl)methyl]-3-piperidinyl]-1,4,6,7-tetrahydro-3-(2-methyl-4-pyridinyl)-5H-pyrazolo[4,3-c]pyridine-5-carboxamide]", "values": [
      {"measurement": "IC50", "result": "< 20", "unit": "nM"}
    ]},
    {"compound": "O=C(N[C@@H]1CCCN(Cc2csc3ccccc23)C1)N1CCc2[nH]nc(-c3ccc(-c4ccccc4)nc3)c2C1", "note": "[Compound 136, N-[1-(benzo[b]thien-3-ylmethyl)-3(R)-piperidinyl]-1,4,6,7-tetrahydro-3-(6-phenyl-3-pyridinyl)-5H-pyrazolo[4,3-c]pyridine-5-carboxamide]", "values": [
      {"measurement": "IC50", "result": "101 to 1000", "unit": "nM"}
    ]},
    {"compound": "O=C(N[C@@H]1CCCN(Cc2c(F)cccc2F)C1)N1CCc2[nH]nc(-c3ccc(-c4ccccc4)nc3)c2C1", "note": "[Compound 137, N-[1-[(2,6-difluorophenyl)-methyl]-3(R)-piperidinyl]-1,4,6,7-tetrahydro-3-(6-phenyl-3-pyridinyl)-5H-pyrazolo[4,3-c]pyridine-5-carboxamide]", "values": [
      {"measurement": "IC50", "result": "101 to 1000", "unit": "nM"}
    ]},
    {"compound": "COc1cccc(F)c1CN1CCC[C@@H](NC(=O)N2CCc3[nH]nc(-c4ccc(-c5ccccc5)nc4)c3C2)C1", "note": "[Compound 138, N-[1-[(2-fluoro-6-methoxyphenyl)methyl]-3(R)-piperidinyl]-1,4,6,7-tetrahydro-3-(6-phenyl-3-pyridinyl)-5H-pyrazolo[4,3-c]pyridine-5-carboxamide]", "values": [
      {"measurement": "IC50", "result": "101 to 1000", "unit": "nM"}
    ]},
    {"compound": "Cc1cccc(C)c1CN1CC[C@@H](NC(=O)N2CCc3[nH]nc(-c4ccc(-c5ccccc5)nc4)c3C2)C1", "note": "[Compound 139, N-[1-[(2,6-dimethylphenyl)-methyl]-3(R)-pyrrolidinyl]-1,4,6,7-tetrahydro-3-(6-phenyl-3-pyridinyl)-5H-pyrazolo[4,3-c]pyridine-5-carboxamide]", "values": [
      {"measurement": "IC50", "result": "101 to 1000", "unit": "nM"}
    ]},
    {"compound": "Cn1ncc2cc(-c3n[nH]c4c3CN(C(=O)NC3CCC5CCC3N5Cc3ccccc3F)CC4)ccc21", "note": "(centres unmarked) [Compound 140, N-[8-[(2-fluorophenyl)methyl]-8-azabicyclo[3.2.1]oct-2-yl]-1,4,6,7-tetrahydro-3-(1-methyl-1H-indazol-5-yl)-5H-pyrazolo[4,3-c]pyridine-5-carboxamide]", "values": [
      {"measurement": "IC50", "result": "< 20", "unit": "nM"}
    ]},
    {"compound": "Cc1nc2cc(-c3n[nH]c4c3CN(C(=O)N[C@@H]3CCCN(Cc5cccc6cnccc56)C3)CC4)ccc2o1", "note": "[Compound 142, 1,4,6,7-tetrahydro-N-[1-(5-isoquinolinylmethyl)-3(R)-pipendinyl]-3-(2-methyl-5-benzoxazolyl)-5H-pyrazolo[4,3-c]pyridine-5-carboxamide]", "values": [
      {"measurement": "IC50", "result": "101 to 1000", "unit": "nM"}
    ]},
    {"compound": "Cc1nc2cc(-c3n[nH]c4c3CN(C(=O)N[C@@H]3CCCN(Cc5ccnc6ccccc56)C3)CC4)ccc2o1", "note": "[Compound 144, 1,4,6,7-tetrahydro-3-(2-methyl-5-benzoxazolyl)-N-[1-(4-quinolinylmethyl)-3(R)-piperidinyl]-5H-pyrazolo[4,3-c]pyridine-5-carboxamide]", "values": [
      {"measurement": "IC50", "result": "101 to 1000", "unit": "nM"}
    ]},
    {"compound": "Cc1nc2cc(-c3n[nH]c4c3CN(C(=O)N[C@@H]3CCCN(Cc5cccc6ncccc56)C3)CC4)ccc2o1", "note": "[Compound 146, 1,4,6,7-tetrahydro-3-(2-methyl-5-benzoxazolyl)-N-[1-(5-quinolinylmethyl)-3(R)-piperidinyl]-5H-pyrazolo[4,3-c]pyridine-5-carboxamide]", "values": [
      {"measurement": "IC50", "result": "21 to 100", "unit": "nM"}
    ]},
    {"compound": "Cc1nc2cc(-c3n[nH]c4c3CN(C(=O)N[C@@H]3CCCN(Cc5cn(C)c6ccccc56)C3)CC4)ccc2o1", "note": "[Compound 148, 1,4,6,7-tetrahydro-3-(2-methyl-5-benzoxazolyl)-N-[1-[(1-methyl-1H-indol-3-yl)methyl]-3(R)-piperidinyl]-5H-pyrazolo[4,3-c]pyridine-5-carboxamide]", "values": [
      {"measurement": "IC50", "result": "21 to 100", "unit": "nM"}
    ]},
    {"compound": "COc1cccc(F)c1CN1CCC(F)C(NC(=O)N2CCc3[nH]nc(-c4ccc5nccn5c4)c3C2)C1", "note": "(centres unmarked) [Compound 150, N-[4-fluoro-1-[(2-fluoro-6-methoxyphenyl)methyl]-3-piperidinyl]-1,4,6,7-tetrahydro-3-imidazo[1,2-a]pyridin-6-yl-5H-pyrazolo[4,3-c]pyridine-5-carboxamide]", "values": [
      {"measurement": "IC50", "result": "< 20", "unit": "nM"}
    ]},
    {"compound": "Cc1nc2cc(-c3n[nH]c4c3CN(C(=O)N[C@@H]3CCCN(Cc5csc6ccccc56)C3)CC4)ccc2o1", "note": "[Compound 152, N-[1-(benzo[b]thien-3-ylmethyl)-3(R)-piperidinyl]-1,4,6,7-tetrahydro-3-(2-methyl-5-benzoxazolyl)-5H-pyrazolo[4,3-c]pyridine-5-carboxamide]", "values": [
      {"measurement": "IC50", "result": "< 20", "unit": "nM"}
    ]},
    {"compound": "Cc1nc2cc(-c3n[nH]c4c3CN(C(=O)N[C@@H]3CCCN(Cc5ccc6ccccc6c5)C3)CC4)ccc2o1", "note": "[Compound 154, 1,4,6,7-tetrahydro-3-(2-methyl-5-benzoxazolyl)-N-[1-(2-naphthalenylmethyl)-3(R)-piperidinyl]-5H-pyrazolo[4,3-c]pyridine-5-carboxamide]", "values": [
      {"measurement": "IC50", "result": "< 20", "unit": "nM"}
    ]}
  ]
}
